In the NIST ThermoML archive (doi:10.1016/j.fluid.2008.06.012):
± gives the expanded uncertainty stated by the source.

Key:
[1] = refractive index (Na D-line) (dimensionless); settings: 298.15 K; 101.33 kPa; Liquid; Standard Abbe refractometry
[2] = 298.15 K, 101.33 kPa, Liquid

| Structure (SMILES) | refractive index [1] | mass density ([2]; Vibrating tube method) [kg/m3] | mass density [2] [kg/m3] |
| --- | --- | --- | --- |
| CCOS(=O)(=O)[O-].CCn1cc[n+](C)c1 [1-ethyl-3-methylimidazolium ethyl sulfate] | 1.47903 ± 0.0012 | 1238.17 ± 8.3 |  |
| CCCCCCCCCCCC [dodecane] | 1.42011 ± 0.0007 |  | 745.32 ± 0.91 |
| CCCCCCC [heptane] | 1.38517 ± 0.00068 |  | 679.47 ± 0.66 |
| CCCCCCCCCCCCCCCC [hexadecane] | 1.43232 ± 0.0007 |  | 771.15 ± 0.85 |
| CCCCCC [hexane] | 1.37287 ± 0.0007 |  | 655.06 ± 1.1 |
| c1ccsc1 [thiophene] | 1.5253 ± 0.00068 |  | 1058.59 ± 0.28 |
